Measured values published in PubChem BioAssay AID1259332 (Broad Institute, 2017).
The source made the active and inactive calls. How the calls were made is not given here.

Experiment: CD40 pathway inhibition in B cells – B cell lineage, dose response (AID 1259332);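 further: cells stimulated with CD40 ligand tCD40L; 0% = neutral control wells and -100% = positive control wells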
Conditions: B cell line, CD40 signaling inhibition reporter; at 0.38 µM (top of the series)

Compound | activity change, negative = inhibition
O=C1C(=Cc2ccccc2[N+](=O)[O-])Cc2ccccc21 | 19.6% (inactive)
C[C@H]1CN([C@@H](C)CO)C(=O)c2ccccc2-c2ccccc2CO[C@H]1CN(C)Cc1ccc(Oc2ccccc2)cc1 | 6.67% (inactive)

Same assay, conditions: B cell line, CD40 signaling inhibition reporter; at 1.1 µM (top of the series)

Compound | activity change, negative = inhibition
CCc1cnc(N2[C@H](C#N)[C@@H](c3ccccc3C3=CCCC3)[C@@H]2CO)s1 | 18.2% (inactive)
C[C@@H]1CCCCO[C@@H](CN(C)S(=O)(=O)c2ccc(Cl)cc2)[C@H](C)CN([C@H](C)CO)C(=O)c2cc(NC(=O)Nc3ccc(C(F)(F)F)cc3)ccc2O1 | 1.11% (inactive)
CC(C)(C)[S@](=O)N1Cc2cc(C(=O)NCC(F)(F)F)nc(-c3cccc(-c4cccc(F)c4)c3)c2[C@@H]1CCO | 9.18% (inactive)
CO[C@@H](CN(C)S(=O)(=O)c1ccc(Cl)cc1)[C@H](C)CN(Cc1ccccc1Cl)[C@@H](C)CO | 0.243% (inactive)

Same assay, conditions: B cell line, CD40 signaling inhibition reporter; at 3.5 µM (top of the series)

Compound | activity change, negative = inhibition
Cc1noc(C)c1S(=O)(=O)Nc1ccc2c(c1)C(=O)N([C@H](C)CO)C[C@H](C)[C@@H](CN(C)C(=O)Nc1cccc3ccccc13)OCCCC[C@H](C)O2 | -1% (inactive)
O=C(NCCC(c1ccccc1)c1ccco1)c1cccs1 (configuration not stated) | 25.6% (inactive)
N#C[C@@H]1[C@@H](c2ccccc2)[C@H](CO)N1C(=O)CN1CCOCC1 | -5.63% (inactive)
COc1cccc(S(=O)(=O)N(C)C[C@H]2OCc3ccccc3-c3c(n(C)c4ccccc34)C(=O)N([C@@H](C)CO)C[C@H]2C)c1 | -5.41% (inactive)
CCc1cnc(N2[C@H](C#N)[C@@H](c3ccc(C#CC(C)C)cc3)[C@H]2CO)s1 | 8.53% (inactive)
C[C@H](CO)N1C[C@H](C)[C@H](CN(C)CC2CCCCC2)Oc2ccc(NC(=O)Nc3ccc(C(F)(F)F)cc3)cc2C1=O | 4.59% (inactive)
COc1ccc(CN2CC3(CN(C(=O)Cc4ccccc4)C3)c3c([nH]c4cc(OC)ccc34)[C@H]2CO)cc1 | -3.26% (inactive)
C[C@@H]1CN([C@@H](C)CO)C(=O)Cc2cc(NS(=O)(=O)c3ccccc3)ccc2O[C@H]1CN(C)Cc1ccc(Cl)c(Cl)c1 | 0.835% (inactive)
CCCNC(=O)N1[C@H](CO)[C@H](c2ccc(/C=C/c3ccccc3)cc2)[C@@H]1C#N | 5% (inactive)
N#C[C@H]1[C@H](c2ccc(C#CC3CCCCC3)cc2)[C@H](CO)N1C(=O)Nc1ccc(F)cc1 | -7.18% (inactive)
CC1=CC(=O)c2ccccc2C1=O | 11.2% (inactive)
O=S(=O)(c1cccc2cnccc12)N1CCNCC1 | -9.07% (inactive)
COc1ccccc1C(=O)Nc1ccc2c(c1)C(=O)N(C)[C@H]1CC[C@H](CC(=O)Nc3cccc(C(C)C)c3)O[C@@H]1CO2 | 12.5% (inactive)
Cc1ccccc1-c1ccc(C2[C@@H]3CN(C(=O)Nc4cccc(F)c4)C[C@H]2N3)cc1 (some centres not stated) | 7.95% (inactive)
C[C@H]1CN([C@@H](C)CO)C(=O)c2c(c3ccccc3n2C)-c2ccccc2CO[C@H]1CN(C)S(=O)(=O)c1ccc([N+](=O)[O-])cc1 | -3.2% (inactive)
N#Cc1cccc(-c2ccc([C@@H]3[C@H](CO)N4CCCCN(C(=O)Nc5cccc(F)c5)C[C@@H]34)cc2)c1 | 18.1% (inactive)
N#C[C@@H]1[C@@H](c2ccccc2-c2ccccc2)[C@@H](CO)N1C(=O)NC1CCCC1 | 5.58% (inactive)
Oc1cc2c(cc1C(c1ccc(Br)cc1)N1CCCC1)OCO2 (configuration not stated) | 16.1% (inactive)
C[C@@H]1CCCCO[C@@H](CN(C)CC2CCCCC2)[C@@H](C)CN([C@@H](C)CO)C(=O)c2cc(NC(=O)Nc3ccc(C(F)(F)F)cc3)ccc2O1 | -6.41% (inactive)

Same assay, conditions: B cell line, CD40 signaling inhibition reporter; at 10 µM (top of the series)

Compound | activity change, negative = inhibition
C[C@@H]1CN([C@H](C)CO)C(=O)c2c(c3ccccc3n2C)-c2ccccc2CO[C@H]1CN(C)C(=O)c1cc(Cl)cc(Cl)c1 | -4.87% (inactive)
CCCCC1C(=O)NC(=S)N(C)C1=O (configuration not stated) | 11.5% (inactive)
C[C@@H]1CN([C@@H](C)CO)S(=O)(=O)c2ccc(C#Cc3ccccc3F)cc2O[C@H]1CN(C)C(=O)Cc1cccnc1 | -17.7% (inactive)
C(=Cc1c[nH]c2ccccc12)c1nccc2ccccc12 | 74.5% (inactive)
Cc1ccc2c(c1)C(O)(CC(=O)/C=C/C=C/c1ccccc1)C(=O)N2 (configuration not stated) | -5.49% (inactive)
Nc1cccc2nc3ccccc3cc12 | 22.5% (inactive)
C[C@@H]1CN([C@@H](C)CO)C(=O)c2c(c3ccccc3n2C)-c2ccccc2CO[C@@H]1CN(C)Cc1ccccc1C(F)(F)F | 4.94% (inactive)
CCN(CC(=O)Nc1ccc(NC(C)=O)cc1)C(=O)C1CCCN(C(=O)c2ccc(Cl)cc2)C1 (configuration not stated) | 0.336% (inactive)
Cc1ccc(C2(C)NC(=O)N(CC(=O)Nc3cccnc3Cl)C2=O)cc1 (configuration not stated) | -2.81% (inactive)
CC(=O)Nc1nc2nc(-c3ccccc3)cc(-c3ccccc3)n2n1 | 6.86% (inactive)
CC(C)OC(=O)CC1C(=O)NCCN1C(=S)NC(=O)c1cccs1 (configuration not stated) | 15.3% (inactive)
CCCC(C)Sc1nc2c([nH]1)c(=S)n(C)c(=O)n2C (configuration not stated) | -8.82% (inactive)
N=C(N)c1ccc(OCCCCCOc2ccc(C(=N)N)cc2)cc1 | -0.281% (inactive)
CCN1C(=O)C(CC(=O)Nc2ccc(OC)cc2)N(CCc2ccc(F)cc2)C1=S (configuration not stated) | -3.22% (inactive)
C[C@@H]1CN([C@H](C)CO)C(=O)c2c(c3ccccc3n2C)-c2ccccc2CO[C@H]1CN(C)C(=O)Nc1ccccc1C(F)(F)F | -0.491% (inactive)
Cc1ccc(-c2nn3c(C)nnc3c3ccccc23)cc1S(=O)(=O)NCc1ccccc1 | 3.44% (inactive)

Compound | activity change, negative = inhibition
CCSc1ccc(-c2cc(NC=O)c3ncc(-c4cccc(C(=O)N(C)C)c4)n3c2)cc1 | 21.6% (inactive)
CC12CC[C@H]3[C@@H](CCC4(O)C[C@H](O)CCC34/C=N/NC(=O)Cc3ccccc3)C1(O)CCC2C1=CC(=O)OC1 (some centres not stated) | 5.75% (inactive)
Cc1c(C(=O)c2cccc3ccccc23)c2cccc3c2n1[C@H](CN1CCOCC1)CO3 | -18.3% (inactive)
C=C1C(=O)OC2C=C(CO)CCC=C(CO)CC(OC(=O)C(C)C)C12 (configuration not stated) | 14% (inactive)
CC(C)(C)n1cc(C(=O)c2ccc3ccccc3c2O)cn1 | -16.1% (inactive)
O=C1Cc2c([nH]c3ccc(Br)cc23)-c2ccccc2N1 | 17.8% (inactive)
O=C1C(Br)=C(c2ccccc2)C(c2ccccc2)=C1c1ccccc1 | -7.86% (inactive)
COc1ccc(C(=O)/C=C/C(=O)N(CC(=O)NC2CCCCC2)Cc2ccc(F)cc2)c(O)c1 | -5.51% (inactive)
C[C@@H]1CN([C@@H](C)CO)C(=O)c2ccccc2-c2ccccc2CO[C@@H]1CN(C)C(=O)c1cc(Cl)cc(Cl)c1 | -6.79% (inactive)
COc1cccc(OC)c1OCCNCC1COc2ccccc2O1 (configuration not stated) | 18.1% (inactive)
Cc1ccc2nc(-c3cc(-c4ccccc4)no3)cn2c1 | 34.4% (inactive)
CCCCn1c(NC(=O)c2ccc(Br)o2)c(S(=O)(=O)c2ccccc2)c2nc3ccccc3nc21 | 6.39% (inactive)
COC(=O)c1ccc2c(=O)[nH]c(COC(=O)c3c(-c4ccccc4)noc3C)nc2c1 | 7.81% (inactive)
O=C(NCc1ccccn1)C1CCCN(S(=O)(=O)c2ccccc2)C1 (configuration not stated) | 8.97% (inactive)
COCCn1c(C)cc(C(=O)COC(=O)c2ccc(Br)o2)c1C | -11.7% (inactive)
CC12CN3CC(C)(CN(C1)C3c1ccc3c(c1)OCO3)C2=O (configuration not stated) | 6.2% (inactive)
